From patent US7329423B2, “Compositions comprising thylakoids useful in the modulation of inflammation process” (Purecell Technologies Inc., priority 2001, dated 2008)

What was measured:
[1] = test system: TPA-induced inflammation of mouse ears; test: Potentiation of budesonide in TPA-induced mouse ear inflammation (Experiment 10); format: in vivo; settings: BALB/C mice, 24 h
Procedure: Mice (BALB/C) were kept in individual cages, at 20° C. and 55% relative humidity with 12-h light/12-h dark cycle, in a facility that met the Canadian Council on Animal Care (C.C.A.C.) guidelines. The animals were subjected to an 18-hour starving period prior to treatments. […] of mice were treated in the following manner: • (Treatment-1) No application of cream (n=3); • (Treatment-2) Neutral base cream (n=3); • (Treatment-3) Budesonide (0.1%) in neutral base cream (n=3); • (Treatment-4) Budesonide (0.01%) in neutral base cream (n=3); • (Treatment-5) Budesonide (0.01%)+thylakoid extract (0.05%) in neutral base cream (n=3). All treatments were applied 4 and 8 hours following the inflammatory stress (post-treatment) at a dose of 2 μl/cm^2. Animals were kept in the dark for the duration of the treatments. Prior to treatment, mouse ears were subjected to an inflammatory stress by a topical application of phorbol 12-myristate 13-acetate (TPA) (Sigma Chemicals Co.). 20 μL of TPA (0.2 μg/μL) in an acetone solution was applied (Griswold et al., 1998). The right ear of each mouse was treated with TPA whereas the left ear served as the unstressed control. After 24 hours, the mice were sacrificed and a punch of 6 mm in diameter of both the left and right ears was sampled. Ear punch thickness was measured by an electronic digital caliper 0.01 mm (Traceable).

[2] = test system: TNBS-induced colonic damage in rat intestine; test: Potentiation of mesalamine in TNBS-stressed rat intestine (Experiment 11); format: in vivo; settings: Wistar rats, mesalamine 57 mg/kg with or without extract 2 mg/kg in the intestinal lumen 24 and 48 h before TNBS
Procedure: Male Wistar rats (Charles River Laboratories, Montreal) were kept in individual cages, at 20° C. and 55% relative humidity with 12-h light/12-h dark cycle, in a facility that met the Canadian Council on Animal Care (C.C.A.C.) guidelines. The rats were subjected to a 24-hour starving period prior to inflammatory stress induction. Four groups of rats were treated in the following manner: • (Treatment-1) Non-stressed control (n=3); • (Treatment-2) 2,4,6-Trinitrobenzenesulfonic acid (inflammatory agent) in the intestinal lumen (n=3); • (Treatment-3) Mesalamine (5-aminosalicyclic acid; NSAID) (57 mg/kg) administered directly in the intestinal lumen 24 and 48 hours prior to administration of the stress agent (n=3) • (Treatment4) Thylakoid extract (0.05%) (2 mg/kg)+mesalamine (57 mg/kg) administered directly in the intestinal lumen 24 and 48 hours prior to administration of the stress agent (n=3). Twenty-four hours later, the rats were sacrificed and a 10 cm excision of the intestine was sampled.

| SMILES | decrease of ear punch thickness ([1]; budesonide 0.01% in neutral base cream 4 and 8 h after TPA) [%] | decrease of ear punch thickness compared to the untreated control (Treatment-1) ([1]; budesonide 0.1% in neutral base cream 4 and 8 h after TPA) [%] | macroscopic colonic damage score (scale 0-10) [2] |
| --- | --- | --- | --- |
| CCCC1O[C@@H]2C[C@H]3[C@@H]4CCC5=CC(=O)C=C[C@]5(C)[C@H]4[C@@H](O)C[C@]3(C)[C@]2(C(=O)CO)O1 (stereo partly drawn) [Budesonide, budesonide] | 32.6 | 58.2 | – |
| Nc1ccc(O)c(C(=O)O)c1 [mesalamine, 5-aminosalicyclic acid] | – | – | 4.0 |
